Test results as given in US20210330599A1, “Nanoparticles for Controlled Release of Anti-Biofilm Agents and Methods of Use” (University of Rochester, priority 2016, published 2021).
Several values for one entry are separate records, joined by “and”; a condition that tells them apart may be missing. Identical values can stand only once.

Key:
S. mutans cells = test system: S. mutans cells
Description: (§1) In addition, amine fluoride is known to have antibacterial properties.

[1] = monomer / monomer residue; cited from earlier work
[2] = pKa and protonation values of monomers and polymers; assay type: physicochemical; settings: FIG. 22
[3] = farnesol on one degradable tether length (6 degradable bonds)
[4] = Encapsulation of fluoride using NPC; assay type: physicochemical; settings: preliminary studies
Description: as §1

[5] = test system: Streptococcus mutans UA159 biofilms; experiment: S. mutans biofilm on sHA discs, topical treatment regimen (Example 3); assay type: cell-based; settings: 7 topical applications over 54 h
Protocol: Streptococcus mutans UA159, a well-characterized EPS matrix producing and cariogenic pathogen (W. H. Bowen and H. Koo, Caries Res., 2011, 45, 69-86), was used to assess the effect of nanoparticle-mediated delivery of farnesol on biofilm formation using a topical treatment regimen (Horev et al., ACS Nano, 2015, 9, 2390-2404; Koo et al., J. Antimicrob. Chemother., 2003, 52, 782-789). The treatment solutions were: free nanoparticles (1.9 mg ml^−1 in PBS, pH 7.0), farnesol-loaded nanoparticles (1.9 mg ml^−1 loaded with 0.5 mg ml^−1 farnesol, in PBS, pH 7.0), free farnesol (0.5 mg ml^−1 farnesol, in PBS, pH 7.0, 20% ethanol (EtOH)), vehicle control for free farnesol (PBS, pH 7.0, 20% EtOH), and PBS (pH 7.0). A 20% v/v ethanol solution was used as a vehicle to solubilize free farnesol, which is otherwise insoluble in aqueous media (Koo et al., J. Antimicrob. Chemother., 2003, 52, 782-789). […]
The sHA discs and biofilms were treated for 10 min, washed twice with sterile saline (0.89% NaCl), and transferred to culture media. […] Aliquots of biofilm suspension were serially diluted and plated onto blood agar plates, and after 48 h incubation (37° C. and 5% CO2), the colonies were visually counted. […]

Streptococcus mutans = settings: cited from earlier work
S. mutans UA159 biofilms = experiment: S. mutans biofilm on sHA discs, topical treatment regimen (Example 2); assay type: cell-based, Streptococcus mutans; settings: equivalent farnesol dose / controls
Protocol: Biofilms of S. mutans UA159 were formed on saliva coated hydroxyapatite (sHA) surfaces (12.7 mm in diameter, 1 mm in thickness, Clarkson Chromatography Products Inc., South Williamsport, Pa.) as detailed elsewhere (Koo et al., 2010, J Bacteriol, 192(12):3024-32). […] Disks were pretreated with the above-described solutions for 10 min, washed twice with sterile saline, and transferred back to culture media. […] Biofilms were allowed to form on the discs without interruption for 6 hours at which point a second treatment was applied. The next day, biofilms were treated every 6 hours for a total of 3 treatments and the culture media was changed twice. After 48 hours, the amount of colony forming units (CFU) per dry-weight of biofilms was assessed. Briefly, the biofilms were removed and homogenized, then plated onto blood agar plates, and after incubation at 37° C., 5% CO2, the CFUs were counted as described previously (Koo et al., 2003, J Antimicrob Chemother, 52(5):782-9).

Amine fluoride
biofilm formation (S. mutans cells): inhibit biofilm formation | killing of S. mutans cells (S. mutans cells): able to kill S. mutans cells at the μM level

ethylacrylic acid [EAA]
pKa of monomer [1]: ~6.3 and 6.3-6.5 | pKa of synthesized imidazole and ethylacrylic acid functionalities [2]: 6.3

poly(dimethylaminoethyl methacrylate)-b-poly(dimethylaminoethyl methacrylate-co-propylacrylic acid-co-butyl methacrylate) [NPC]
duration of sustained delivery of farnesol [3]: up to 6 days

[F-].[Na+] [sodium fluoride]
compatibility with loading into NPC [4]: not compatible with loading into or onto the NPC

propylacrylic acid [PAA]
pKa of monomer [1]: ~7 and 6.8-7.0

C=C(C)C(=O)OCCN(C)C [DMAEMA, dimethylaminoethyl methacrylate]
pKa of monomer [1]: ~7.2 and 7.2-7.4

CC(C)=CCCC(C)=CCCC(C)=CCO [farnesol]
CFUs per biofilm dry weight / antibiofilm efficacy [5]: only a modest reduction | MIC of farnesol (Streptococcus mutans): < 28 µg/mL | effect on biofilm CFU relative to PBS (S. mutans UA159 biofilms): no effect on CFU relative to PBS

Imidazole methacrylate [IMA]
pKa of monomer [1]: 6.9-7.0

C=C(C)C(=O)O [MAA, methacrylic acid]
pKa of monomer [1]: ~4.6

C=C(C)C(=O)OCCN(CC)CC [DEAEMA, diethylaminoethyl methacrylate]
pKa of monomer [1]: ~7
